Measured values reported in paper PMC12508057, “Discovery of ETI41 and ETI60: novel selective endosomal Toll-like receptor inhibitors for the treatment of autoimmune diseases” (Experimental & Molecular Medicine, 2025).

Molecular target: T1, TLR9 (Mus musculus, UniProt Q9EQU3)
T1 construct: RAW 264.7 and differentiated THP-1 cells were seeded into 96-well plates; endogenous in cells; host or cells: RAW 264.7
T1 sequence (Q9EQU3 26-1032): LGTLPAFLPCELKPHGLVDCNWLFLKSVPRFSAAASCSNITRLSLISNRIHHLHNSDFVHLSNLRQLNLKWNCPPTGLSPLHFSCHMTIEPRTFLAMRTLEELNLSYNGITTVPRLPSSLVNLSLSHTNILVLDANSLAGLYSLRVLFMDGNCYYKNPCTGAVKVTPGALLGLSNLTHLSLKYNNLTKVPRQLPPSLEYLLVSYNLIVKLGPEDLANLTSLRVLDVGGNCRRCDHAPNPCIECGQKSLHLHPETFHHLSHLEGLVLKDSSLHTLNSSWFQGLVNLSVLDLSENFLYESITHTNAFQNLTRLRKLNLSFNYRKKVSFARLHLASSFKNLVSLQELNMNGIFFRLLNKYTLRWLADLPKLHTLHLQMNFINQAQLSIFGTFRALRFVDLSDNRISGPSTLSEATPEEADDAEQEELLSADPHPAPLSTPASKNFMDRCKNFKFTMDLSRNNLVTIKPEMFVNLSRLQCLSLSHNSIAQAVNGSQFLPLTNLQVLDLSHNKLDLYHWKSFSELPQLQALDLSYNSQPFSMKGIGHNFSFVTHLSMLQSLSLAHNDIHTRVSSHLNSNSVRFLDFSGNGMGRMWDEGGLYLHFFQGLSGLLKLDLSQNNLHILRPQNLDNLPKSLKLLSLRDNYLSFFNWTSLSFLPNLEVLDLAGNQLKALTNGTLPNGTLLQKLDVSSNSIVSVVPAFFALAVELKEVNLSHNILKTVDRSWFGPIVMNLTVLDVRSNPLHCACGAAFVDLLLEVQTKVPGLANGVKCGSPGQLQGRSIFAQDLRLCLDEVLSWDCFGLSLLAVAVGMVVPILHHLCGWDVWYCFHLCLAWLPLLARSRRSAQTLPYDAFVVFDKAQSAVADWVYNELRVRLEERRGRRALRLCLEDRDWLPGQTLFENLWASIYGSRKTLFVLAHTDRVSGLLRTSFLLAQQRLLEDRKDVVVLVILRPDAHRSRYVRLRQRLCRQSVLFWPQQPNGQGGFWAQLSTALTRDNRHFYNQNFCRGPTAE
Assay: Real-time quantitative PCR in BMDCs stimulated with ODN2395
Format: cell-based
Conditions: primary BMDCs, 0.2 and 1 μM, ODN2395 1 μM
Description: Bone marrow cells from 8-week-old C57BL/6 mice (Jackson Laboratory) were cultured in RPMI 1640 with 20 ng/ml granulocyte-macrophage colony-stimulating factor (GM-CSF; Thermo Fisher Scientific) for 8 days. Bone marrow-derived dendritic cell (BMDC) purity was confirmed by fluorescence-activated cell sorting (FACS), showing 84% F4/80^− and CD11c^+ cells. […] Total mRNA was extracted using TRIzol reagent (Thermo Fisher Scientific) and reverse transcribed using the ReverTra Ace qPCR RT Kit (Toyobo). mRNA levels were determined using SYBR Green PCR Master Mix (Kapa Biosystems) and a CFX Connect RT-PCR System (Bio-Rad). Primers used were directed against IL-12p40, IFN-β, CD40 and GAPDH.
All experiments were independently conducted three times.

In the case of `Cc1cc2c(N)c3c(nc2n1CCCN(C)C)CCCCCC3` [ETI41], the “Production of IL-12p40, IFN-β and CD40 (mRNA)” value is reported as “significantly inhibited”.
